Laboratory results: patent US11446287B2, “Compounds and methods for EP300 or CBP modulation and indications therefor” (Opna Immuno-Oncology SA, priority 2019, dated 2022)

Each molecule was assayed against T1, Recombinant human EP300 containing the bromodomain (EP300-BD (1040-1161)) (Homo sapiens, UniProt Q09472) (assay: EP300 Alphascreen binding assay).
T1 construct: Recombinant human EP300 bromodomain (EP300-BD (1040-1161)); made in house; host or cells: E. coli BL21-CodonPlus (DE3), modified pET vector
T1 sequence (Q09472 1040-1161): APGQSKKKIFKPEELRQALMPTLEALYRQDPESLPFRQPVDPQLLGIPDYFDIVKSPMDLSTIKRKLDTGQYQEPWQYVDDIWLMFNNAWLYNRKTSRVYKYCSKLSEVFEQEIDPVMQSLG
Summary of the method: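 Displacement of a biotinylated acetyl-K56 histone H3 peptide from the N-His bromodomain construct (1040-1161) measured by AlphaScreen proximity, beads at 7.5 μg/ml final, read 60 min after addition. Protein, peptide and compound first incubated 1 h at room temperature, pH 7.5 HEPES buffer; IC50 by four-parameter logistic fit.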

Row | Compound | IC50 [µM]
1 | Cc1noc(C)c1-c1cnc2c(c1)c(-c1cc(C(=O)O)ccc1OC(F)(F)F)cn2-c1ccc(F)cc1F [P-0268, 3-(1-(2,4-difluorophenyl)-5-(3,5-dimethylisoxazol-4-yl)-1H-pyrrolo[2,3-b]pyridin-3-yl)-4-(trifluoromethoxy)benzoic acid] | 0.0001 to 1
2 | CCOc1cc(OC)c(C(=O)O)cc1-c1cn(-c2ccc(F)cc2F)c2ncc(-c3c(C)noc3C)cc12 [P-0250, 5-(1-(2,4-difluorophenyl)-5-(3,5-dimethylisoxazol-4-yl)-1H-pyrrolo[2,3-b]pyridin-3-yl)-4-ethoxy-2-methoxybenzoic acid] | 0.0001 to 1
3 | Cc1noc(C)c1-c1cnc2c(-c3ccccc3)cn(-c3cc(C(=O)O)ccc3OC(F)(F)F)c2c1 [P-0274, 3-(6-(3,5-dimethylisoxazol-4-yl)-3-phenyl-1H-pyrrolo[3,2-b]pyridin-1-yl)-4-(trifluoromethoxy)benzoic acid] | 0.0001 to 1
4 | Cc1noc(C)c1-c1cnc2c(-c3cccc(C(=O)O)c3Cl)c(C(F)(F)F)n([C@@H](C)c3ccccn3)c2c1 [P-0247, (S)-2-chloro-3-(6-(3,5-dimethylisoxazol-4-yl)-1-(1-(pyridin-2-yl)ethyl)-2-(trifluoromethyl)-1H-pyrrolo[3,2-b]pyridin-3-yl)benzoic acid] | 0.0001 to 1
5 | Cc1noc(C)c1-c1cnc2c(c1)c(-c1ccc(C#N)cc1)cn2C(c1ccccn1)C1CCCC1 (centres unmarked) [P-0022, 4-(1-(cyclopentyl(pyridin-2-yl)methyl)-5-(3,5-dimethylisoxazol-4-yl)-1H-pyrrolo[2,3-b]pyridin-3-yl)benzonitrile] | 8 to 1000
6 | CNC(=O)c1ccc(-c2cn(C(c3ccccn3)C3CCCC3)c3ncc(-c4c(C)noc4C)cc23)cc1 (centres unmarked) [P-0021, 4-(1-(cyclopentyl(pyridin-2-yl)methyl)-5-(3,5-dimethylisoxazol-4-yl)-1H-pyrrolo[2,3-b]pyridin-3-yl)-N-methylbenzamide] | 1 to 8
7 | Cc1nnn(C)c1-c1cnc2c(c1)c(-c1ccc(C(=O)O)cc1OC(F)(F)F)cn2CC/C=C/C1CC1 [P-0305, (E)-4-(1-(4-cyclopropylbut-3-en-1-yl)-5-(1,4-dimethyl-1H-1,2,3-triazol-5-yl)-1H-pyrrolo[2,3-b]pyridin-3-yl)-3-(trifluoromethoxy)benzoic acid] | 0.0001 to 1
8 | Cc1noc(C)c1-c1cnc2c(c1)c(-c1ccc(-c3nn[nH]n3)cc1)cn2C(c1ccccn1)C1CCCC1 (centres unmarked) [P-0024, 4-(3-(4-(2H-tetrazol-5-yl)phenyl)-1-(cyclopentyl(pyridin-2-yl)methyl)-1H-pyrrolo[2,3-b]pyridin-5-yl)-3,5-dimethylisoxazole] | 1 to 8
9 | CCOc1cc(C(=O)O)cc(OCC)c1-n1cc(-c2cn(C)nc2C)c2ncc(-c3c(C)noc3C)cc21 [P-0263, 4-(3-(1,3-dimethyl-1H-pyrazol-4-yl)-6-(3,5-dimethylisoxazol-4-yl)-1H-pyrrolo[3,2-b]pyridin-1-yl)-3,5-diethoxybenzoic acid] | 0.0001 to 1
10 | Cc1noc(C)c1-c1cnc2c(c1)c(-c1ccc(C(=O)O)cc1OC(F)(F)F)cn2-c1ccccc1Cl [P-0307, 4-(1-(2-chlorophenyl)-5-(3,5-dimethylisoxazol-4-yl)-1H-pyrrolo[2,3-b]pyridin-3-yl)-3-(trifluoromethoxy)benzoic acid] | 0.0001 to 1
11 | Cc1noc(C)c1-c1cnc2c(c1)c(-c1ccc(C(=O)O)cc1OC(F)(F)F)cn2-c1cnn(C(F)F)c1C [P-0289, 4-(1-(1-(difluoromethyl)-5-methyl-1H-pyrazol-4-yl)-5-(3,5-dimethylisoxazol-4-yl)-1H-pyrrolo[2,3-b]pyridin-3-yl)-3-(trifluoromethoxy)benzoic acid] | 0.0001 to 1
12 | Cc1noc(C)c1-c1cnc2c(c1)c(-c1ccc(C(=O)O)cc1OC(F)(F)F)cn2-c1cnccc1O [P-0252, 4-(5-(3,5-dimethylisoxazol-4-yl)-1-(4-hydroxypyridin-3-yl)-1H-pyrrolo[2,3-b]pyridin-3-yl)-3-(trifluoromethoxy)benzoic acid] | 0.0001 to 1
13 | Cc1noc(C)c1-c1cnc2c(-c3ccc(F)cc3F)cn(-c3c(OC(C)C)cc(C(=O)O)cc3OC(C)C)c2c1 [P-0269, 4-(3-(2,4-difluorophenyl)-6-(3,5-dimethylisoxazol-4-yl)-1H-pyrrolo[3,2-b]pyridin-1-yl)-3,5-diisopropoxybenzoic acid] | 0.0001 to 1
14 | Cc1noc(C)c1-c1cnc2c(c1)c(-c1ccc(C(=O)O)cc1OC(F)(F)F)cn2-c1ccncc1F [P-0293, 4-(5-(3,5-dimethylisoxazol-4-yl)-1-(3-fluoropyridin-4-yl)-1H-pyrrolo[2,3-b]pyridin-3-yl)-3-(trifluoromethoxy)benzoic acid] | 0.0001 to 1
15 | Cc1nn(C(F)F)cc1-n1cc(-c2ccc(C(=O)O)cc2OC(F)(F)F)c2cc(-c3c(C)noc3C)cnc21 [P-0288, 4-(1-(1-(difluoromethyl)-3-methyl-1H-pyrazol-4-yl)-5-(3,5-dimethylisoxazol-4-yl)-1H-pyrrolo[2,3-b]pyridin-3-yl)-3-(trifluoromethoxy)benzoic acid] | 0.0001 to 1
16 | Cc1noc(C)c1-c1cnc2c(c1)c(-c1ccc(C(=O)O)cc1OC(F)F)cn2-c1ccccc1 [P-0273, 3-(difluoromethoxy)-4-(5-(3,5-dimethylisoxazol-4-yl)-1-phenyl-1H-pyrrolo[2,3-b]pyridin-3-yl)benzoic acid] | 0.0001 to 1
17 | Cc1noc(C)c1-c1cnc2c(c1)c(-c1cnn(CC(=O)O)c1)cn2-c1ncccc1C#CC1CC1 [P-0272, 2-(4-(1-(3-(cyclopropylethynyl)pyridin-2-yl)-5-(3,5-dimethylisoxazol-4-yl)-1H-pyrrolo[2,3-b]pyridin-3-yl)-1H-pyrazol-1-yl)acetic acid] | 0.0001 to 1
18 | Cc1noc(C)c1-c1cnc2c(c1)c(-c1ccc(C(=O)O)cc1OC(F)(F)F)cn2-c1ccsc1 [P-0315, 4-(5-(3,5-dimethylisoxazol-4-yl)-1-(thiophen-3-yl)-1H-pyrrolo[2,3-b]pyridin-3-yl)-3-(trifluoromethoxy)benzoic acid] | 0.0001 to 1
19 | Cc1noc(C)c1-c1cnc2c(c1)c(-c1c(Cl)cc(C(=O)O)cc1OC(C)C)cn2C(C1CC1)C1CC1 [P-0283, 3-chloro-4-(1-(dicyclopropylmethyl)-5-(3,5-dimethylisoxazol-4-yl)-1H-pyrrolo[2,3-b]pyridin-3-yl)-5-isopropoxybenzoic acid] | 0.0001 to 1
20 | CCOc1cc(C(=O)O)cc(OCC)c1-n1cc(-c2cnn(CS(C)(=O)=O)c2)c2ncc(-c3c(C)noc3C)cc21 [P-0258, 4-(6-(3,5-dimethylisoxazol-4-yl)-3-(1-((methylsulfonyl)methyl)-1H-pyrazol-4-yl)-1H-pyrrolo[3,2-b]pyridin-1-yl)-3,5-diethoxybenzoic acid] | 0.0001 to 1
21 | Cc1noc(C)c1-c1cnc2c(c1)c(-c1ccc(C(=O)O)cc1OC(F)(F)F)cn2C1CCN(S(C)(=O)=O)CC1 [P-0292, 4-(5-(3,5-dimethylisoxazol-4-yl)-1-(1-(methylsulfonyl)piperidin-4-yl)-1H-pyrrolo[2,3-b]pyridin-3-yl)-3-(trifluoromethoxy)benzoic acid] | 0.0001 to 1
22 | Cc1noc(C)c1-c1cnc2c(c1)c(-c1ccc(C(=O)O)cc1OC1CCC1)cn2-c1ccccc1 [P-0276, 3-cyclobutoxy-4-(5-(3,5-dimethylisoxazol-4-yl)-1-phenyl-1H-pyrrolo[2,3-b]pyridin-3-yl)benzoic acid] | 0.0001 to 1
23 | Cc1noc(C)c1-c1cnc2c(c1)c(-c1ccc(C(=O)O)cc1OC(F)(F)F)cn2-c1c(F)cccc1C#N [P-0254, 4-(1-(2-cyano-6-fluorophenyl)-5-(3,5-dimethylisoxazol-4-yl)-1H-pyrrolo[2,3-b]pyridin-3-yl)-3-(trifluoromethoxy)benzoic acid] | 0.0001 to 1
24 | Cc1noc(C)c1-c1cnc2c(c1)c(-c1ccc(C(=O)O)cc1OC(F)(F)F)cn2-c1ccc(F)cc1 [P-0279, 4-(5-(3,5-dimethylisoxazol-4-yl)-1-(4-fluorophenyl)-1H-pyrrolo[2,3-b]pyridin-3-yl)-3-(trifluoromethoxy)benzoic acid] | 0.0001 to 1
25 | Cc1noc(C)c1-c1cnc2c(c1)c(-c1cnn(CC(=O)O)c1)cn2C(C1CC1)C1CC1 [P-0280, 2-(4-(1-(dicyclopropylmethyl)-5-(3,5-dimethylisoxazol-4-yl)-1H-pyrrolo[2,3-b]pyridin-3-yl)-1H-pyrazol-1-yl)acetic acid] | 0.0001 to 1
26 | CCOc1cc(O)c(C(=O)O)cc1-c1cn(-c2ccc(F)cc2F)c2ncc(-c3c(C)noc3C)cc12 [P-0249, 5-(1-(2,4-difluorophenyl)-5-(3,5-dimethylisoxazol-4-yl)-1H-pyrrolo[2,3-b]pyridin-3-yl)-4-ethoxy-2-hydroxybenzoic acid] | 0.0001 to 1
27 | CCOc1cc(C(=O)O)c(F)c(OCC)c1-c1cn(-c2ccc(F)cc2F)c2ncc(-c3c(C)noc3C)cc12 [P-0297, 4-(1-(2,4-difluorophenyl)-5-(3,5-dimethylisoxazol-4-yl)-1H-pyrrolo[2,3-b]pyridin-3-yl)-3,5-diethoxy-2-fluorobenzoic acid] | 0.0001 to 1
28 | Cc1noc(C)c1-c1cnc2c(c1)c(-c1ccc(C(=O)O)cc1OC(F)(F)F)cn2[C@H]1CCOC1 [P-0285, (S)-4-(5-(3,5-dimethylisoxazol-4-yl)-1-(tetrahydrofuran-3-yl)-1H-pyrrolo[2,3-b]pyridin-3-yl)-3-(trifluoromethoxy)benzoic acid] | 0.0001 to 1
29 | CCOc1cc(C(=O)O)cc(OCC)c1-n1cc(-c2cnn(C3CC3)c2)c2ncc(-c3c(C)noc3C)cc21 [P-0265, 4-(3-(1-cyclopropyl-1H-pyrazol-4-yl)-6-(3,5-dimethylisoxazol-4-yl)-1H-pyrrolo[3,2-b]pyridin-1-yl)-3,5-diethoxybenzoic acid] | 0.0001 to 1
